# Source: US7667100B2, “Nucleic acid compositions conferring herbicide resistance” (Dow AgroSciences LLC, priority 2002, dated 2010)
# System: Arabidopsis thaliana
# Test: Auxin tolerance testing of stably transformed Arabidopsis thaliana
# Format: in vivo
# Conditions: 50 μL of 3.75 g ae/ha solution on one lower leaf, within five days
# Excerpt: One of the auxin tolerance sequences, 129965 (SEQ ID NO:10), was selected for stable expression analysis using a model plant system, Arabidopsis thaliana. This required cloning of the GENEWARE® vector insert into a binary vector suitable for Agrobacterium transformation. Agrobacteriuni encoding the gene of interest as well as a selectable marker was then utilized to transform Arabidopsis plants. Transgenic plants derived from the first generation of seed (T1) were selected based on glufosinate resistance and subsequently tested for tolerance to auxin 4-amino-3,6-dichloropyridine-2-carboxylic acid.
# Plant growth and maintenance. Freshly harvested Arabidopsis thaliana (Columbia ecotype) seed was allowed to dry at least 7 days at room temperature in the presence of desiccant. Dried seed was sterilized with a 0.1% Triton X-100 (Sigma Chemical Co., St. Louis, Mo.) and 70% ethanol solution (3 min) using 95% ethanol as a wash (30 sec). After sterilization, seed was suspended in a 0.1% agarose (Sigma Chemical Co., St. Louis, Mo.) solution. The suspended seed was stored at 4° C. for 2 days to complete dormancy requirements and ensure synchronous seed germination (stratification).
# Sunshine Mix LP5 (Sun Gro Horticulture Inc., Bellevue, Wash.) was covered with fine vermiculite and subirrigated with Hoagland's solution (see Example 9) until wet. The soil mix was allowed to drain for 24 hours. […]
compound,measurement,value
"Nc1cc(Cl)nc(C(=O)O)c1Cl [4-amino-3,6-dichloropyridine-2-carboxylic acid, reference compound]",auxin symptoms in wild type plants,"systemic symptoms of epinasty and leaf cupping, as well as meristem swelling and significant chlorosis"
